Assay results as given in PubChem BioAssay (NCI).
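Test compounds were applied to cells in 96-well plates for 48 hours at 5 doses. TGI denotes the concentration required for complete inhibition of growth.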

Key:
Assay in all cases: NCI anticancer screen, dose series, 48 h
786-0 renal = tested on: 786-0 renal
A549 NSCLC = tested on: A549 NSCLC
ACHN renal = tested on: ACHN renal
CAKI-1 renal = tested on: CAKI-1 renal
CCRF-CEM leukemia = tested on: CCRF-CEM leukemia
COLO 205 colon = tested on: COLO 205 colon
DLD-1 colon = tested on: DLD-1 colon
DMS 114 small cell lung = tested on: DMS 114 small cell lung
DMS 273 small cell lung = tested on: DMS 273 small cell lung
EKVX NSCLC = tested on: EKVX NSCLC
HCC-2998 colon = tested on: HCC-2998 colon
HCT-15 colon = tested on: HCT-15 colon
HL-60(TB) leukemia = tested on: HL-60(TB) leukemia
HOP-18 NSCLC = tested on: HOP-18 NSCLC
HOP-62 NSCLC = tested on: HOP-62 NSCLC
HOP-92 NSCLC = tested on: HOP-92 NSCLC
HT29 colon = tested on: HT29 colon
K-562 leukemia = tested on: K-562 leukemia
KM12 colon = tested on: KM12 colon
KM20L2 colon = tested on: KM20L2 colon
LOX IMVI melanoma = tested on: LOX IMVI melanoma
LXFL 529 NSCLC = tested on: LXFL 529 NSCLC
M14 melanoma = tested on: M14 melanoma
MALME-3M melanoma = tested on: MALME-3M melanoma
MOLT-4 leukemia = tested on: MOLT-4 leukemia
NCI-H226 lung = tested on: NCI-H226 lung
NCI-H23 lung = tested on: NCI-H23 lung
NCI-H460 lung = tested on: NCI-H460 lung
NCI-H522 lung = tested on: NCI-H522 lung
OVCAR-3 ovarian = tested on: OVCAR-3 ovarian
OVCAR-4 ovarian = tested on: OVCAR-4 ovarian
OVCAR-5 ovarian = tested on: OVCAR-5 ovarian
OVCAR-8 ovarian = tested on: OVCAR-8 ovarian
RPMI-8226 leukemia = tested on: RPMI-8226 leukemia
RXF 393 renal = tested on: RXF 393 renal
SF-268 CNS = tested on: SF-268 CNS
SF-295 CNS = tested on: SF-295 CNS
SK-MEL-28 melanoma = tested on: SK-MEL-28 melanoma
SK-MEL-5 melanoma = tested on: SK-MEL-5 melanoma
SK-OV-3 ovarian = tested on: SK-OV-3 ovarian
SN12C renal = tested on: SN12C renal
SNB-19 CNS = tested on: SNB-19 CNS
SNB-75 CNS = tested on: SNB-75 CNS
SNB-78 CNS = tested on: SNB-78 CNS
SW-620 colon = tested on: SW-620 colon
TK-10 renal = tested on: TK-10 renal
U251 CNS = tested on: U251 CNS
UACC-257 melanoma = tested on: UACC-257 melanoma
UO-31 renal = tested on: UO-31 renal
XF 498 CNS = tested on: XF 498 CNS
A498 renal = tested on: A498 renal
HCT-116 colon = tested on: HCT-116 colon
IGROV1 ovarian = tested on: IGROV1 ovarian
M19-MEL melanoma = tested on: M19-MEL melanoma
SF-539 CNS = tested on: SF-539 CNS
SK-MEL-2 melanoma = tested on: SK-MEL-2 melanoma
SR leukemia = tested on: SR leukemia
UACC-62 melanoma = tested on: UACC-62 melanoma

Measured: TGI

CCc1cccc(C)c1NC(=O)CC(=O)NNC(N)=S
not listed: A498 renal | HCT-116 colon | IGROV1 ovarian | M19-MEL melanoma | SF-539 CNS | SK-MEL-2 melanoma | SR leukemia | UACC-62 melanoma
> 100 µM: all other assays above

Oc1ccc(-c2nc(=S)[nH][nH]2)cc1
not listed: HCC-2998 colon | LOX IMVI melanoma | RXF 393 renal
> 100 µM: all other assays above

CCCCCCCCCCn1cccc1/C=C/c1ccc(/C=C/c2cccn2CCCCCCCCCC)cc1
not listed: HCT-15 colon | MOLT-4 leukemia | SK-MEL-2 melanoma | SR leukemia
> 100 µM: all other assays above
